Some test systems named below: SW-620 colon; SK-MEL-5 melanoma; CAKI-1 renal; PC-3 prostate; SNB-75 CNS; SF-539 CNS; UACC-62 melanoma; NCI-H522 lung; HT29 colon; TK-10 renal.
What all share (assay): NCI-60 cell line screen, 48 h

The structures appear in SMILES notation.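 Where inhibition never reached the appropriate level, the endpoint shown equals the highest concentration tested. Otherwise, values were interpolated linearly from a five-concentration, 48-hour dose response in 96-well plates. GI50 = concentration required for 50% inhibition of growth. At the TGI there is no net growth.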

`Cc1cccc(Cl)c1NC(=O)c1cnc(Nc2cc(N3CCOCC3)cc(S(C)(=O)=O)c2)s1`: the GI50 was more than 10000 nM in the test with SW-620 colon; more than 8890 nM with SK-MEL-5 melanoma; 97.5 nM with CAKI-1 renal; 1460 nM with PC-3 prostate; 20.2 nM in the test on SNB-75 CNS; 306 nM with SF-539 CNS. Moreover, the GI50 with UACC-62 melanoma is 922 nM; with NCI-H522 lung, 264 nM; in the test on HT29 colon, 203 nM; with TK-10 renal, 132 nM. The TGI was more than 10 µM in the test on SW-620 colon; more than 10 µM in the test with SK-MEL-5 melanoma; 0.742 µM with CAKI-1 renal; more than 10 µM in the test with PC-3 prostate; 0.196 µM in the test on SNB-75 CNS; more than 10 µM in the test on SF-539 CNS. For the same molecule, the TGI with UACC-62 melanoma is more than 10 µM; in the test on NCI-H522 lung, more than 10 µM; in the test with HT29 colon, 0.663 µM; in the test with TK-10 renal, 1.15 µM.
Regarding `CC1(C)CCC(C)(C)c2cc(NC(=O)c3ccc(C(=O)O)cc3)ccc21`, the TGI was more than 100 µM with SW-620 colon; more than 93.2 µM in the test with SK-MEL-5 melanoma; 98.6 µM with CAKI-1 renal; more than 70.6 µM in the test with PC-3 prostate; more than 100 µM in the test with SNB-75 CNS; more than 51 µM in the test with SF-539 CNS. Also, the TGI is 39.4 µM in the test on UACC-62 melanoma, more than 89.3 µM in the test with NCI-H522 lung, more than 95 µM in the test on HT29 colon and 85.3 µM with TK-10 renal.
As for `C=CCOC(=O)Nc1cccn([C@H](CC(C)C)C(=O)NCCC(C)C)c1=O`, the GI50 in the test on SW-620 colon was more than 100000 nM; with SK-MEL-5 melanoma it was 74700 nM; with CAKI-1 renal, 29000 nM; with PC-3 prostate, 49700 nM; in the test on SNB-75 CNS, 4910 nM; in the test on SF-539 CNS, more than 100000 nM. Moreover, the GI50 in the test on UACC-62 melanoma was more than 100000 nM; with NCI-H522 lung, 63800 nM; in the test on HT29 colon, more than 100000 nM; with TK-10 renal, more than 100000 nM. For the same molecule, the TGI in the test with SW-620 colon, in the test on SK-MEL-5 melanoma, with CAKI-1 renal, with PC-3 prostate, in the test with SNB-75 CNS and with SF-539 CNS was more than 100 µM each time. Besides, the TGI in the test on UACC-62 melanoma, in the test with NCI-H522 lung, in the test on HT29 colon and in the test with TK-10 renal was more than 100 µM in each case.
On to `COc1cc(CCNC(=O)OC(C)(C)C)c2c(c1OC)SSSSS2`, for which the GI50 in the test on SW-620 colon was 2800 nM; in the test on SK-MEL-5 melanoma, 1840 nM; with CAKI-1 renal it was 2170 nM; with PC-3 prostate it was 3720 nM; in the test with SNB-75 CNS it was 2270 nM; in the test with SF-539 CNS, 3420 nM. Also, the GI50 is 3930 nM in the test with UACC-62 melanoma, 2100 nM in the test with NCI-H522 lung, 1860 nM in the test on HT29 colon and 2630 nM with TK-10 renal. For the same molecule, the TGI in the test on SW-620 colon stood at 7.69 µM; in the test on SK-MEL-5 melanoma, 3.38 µM; in the test on CAKI-1 renal, 4.28 µM; in the test with PC-3 prostate, 13.6 µM; in the test with SNB-75 CNS, 4.56 µM; in the test with SF-539 CNS, 10.4 µM. The TGI in the test on UACC-62 melanoma worked out at 15.5 µM; in the test with NCI-H522 lung, 4.18 µM; in the test on HT29 colon, 4.02 µM; in the test with TK-10 renal, 5.5 µM.
On to `CN(C)c1ccccc1[CH2][Ga]([Cl])[CH2]c1ccccc1N(C)C`, for which the GI50 with SW-620 colon is 1760 nM; in the test with SK-MEL-5 melanoma it was 1220 nM; with CAKI-1 renal, 1580 nM; in the test with PC-3 prostate it was 1740 nM; in the test with SNB-75 CNS, 1410 nM; in the test with SF-539 CNS, 1700 nM. Also, the GI50 was 717 nM in the test with UACC-62 melanoma, 1410 nM with NCI-H522 lung, 583 nM with HT29 colon and 2160 nM in the test with TK-10 renal. Further, the TGI in the test with SW-620 colon was determined as 3.92 µM; in the test with SK-MEL-5 melanoma, 2.49 µM; in the test with CAKI-1 renal it was 3.94 µM; in the test with PC-3 prostate it was 3.63 µM; in the test on SNB-75 CNS, 2.74 µM; in the test on SF-539 CNS, 3.5 µM. The TGI worked out at 2.08 µM with UACC-62 melanoma, 3.45 µM in the test with NCI-H522 lung, 2.82 µM with HT29 colon and 4.7 µM in the test with TK-10 renal.

The record behind these values is PubChem BioAssay (NCI).
